Measurements: ChEMBL document CHEMBL1201862, “PubChem BioAssay data set” (2004)
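How tested: cells in 96-well plates exposed to compound for 48 hours at five concentrations. Abbreviation: GI50, concentration required for 50% inhibition of growth.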 Calls of active or inactive are those of the source. Rule as the data show it: active = GI50 up to about 1.1 µM and inactive = higher.

Key:
Assay in all cases: inhibition of tumour cell growth, NCI panel, 48 h
[1] = test system: SF-539
[2] = test system: NCI-H23
[3] = test system: U-251
[4] = test system: COLO 205
[5] = test system: OVCAR-5
[6] = test system: Malme-3M
[7] = test system: IGROV-1
[8] = test system: SK-OV-3
[9] = test system: KM12
[10] = test system: K562
[11] = test system: UACC-62
[12] = test system: NCI-H522
[13] = test system: HCC 2998
[14] = test system: SK-MEL-28
[15] = test system: UACC-257
[16] = test system: RPMI-8226
[17] = test system: SNB-19
[18] = test system: OVCAR-3
[19] = test system: HOP-92

Measured: GI50

CCOc1ccc2c(c1)[n+]([O-])c(-c1ccc(Br)cc1)c(N)[n+]2[O-]
inactive: [1] 34.4 µM | [2] 22.8 µM | [3] 47.3 µM | [4] 24.2 µM | [5] > 100 µM | [6] 55.6 µM | [7] 67 µM | [8] > 100 µM | [9] 85.5 µM | [10] 75.5 µM | [11] 38.1 µM | [12] 16.6 µM | [13] > 100 µM | [14] 30.9 µM | [15] 59.4 µM | [16] 52.4 µM | [17] 57.3 µM | [18] 48.1 µM

C[C@]12CCC3[C@@H](CC[C@@H]4c5nonc5CC[C@]34C)C1CCC2=O (stereo not given in full)
inactive: [1] 20.4 µM | [2] 24.5 µM | [3] 16 µM | [4] 16.9 µM | [5] 29.3 µM | [6] 23.3 µM | [7] 40.6 µM | [8] 36.7 µM | [9] 20.7 µM | [10] 29.4 µM | [11] 17.3 µM | [12] 16.2 µM | [19] 20.8 µM | [14] 24.7 µM | [15] 18 µM | [16] 17 µM | [17] 40.4 µM | [18] 17.1 µM

O=C1C[C@@H]2[C@@H](CCC23CCCC3)N1
inactive: [1] > 100 µM | [2] > 100 µM | [3] > 100 µM | [4] > 100 µM | [5] > 100 µM | [6] > 100 µM | [7] > 100 µM | [8] > 100 µM | [9] > 100 µM | [10] > 100 µM | [11] > 100 µM | [12] > 100 µM | [13] > 100 µM | [14] > 100 µM | [15] > 100 µM | [16] > 100 µM | [17] > 100 µM | [18] > 100 µM

COc1ccc2c(CCNC(=O)/C=C/c3ccccc3)c(C(C)=O)[nH]c2c1[N+](=O)[O-]
inactive: [1] 9.86 µM | [2] 3.78 µM | [3] 34.2 µM | [4] 8.85 µM | [5] > 10 µM | [7] 18.3 µM | [9] 7.73 µM | [10] 4.49 µM | [11] 10.2 µM | [12] 3.35 µM | [13] 20 µM | [14] 14.5 µM | [15] 8.95 µM | [16] 5.98 µM | [17] 48.6 µM | [18] 10.1 µM
